Assays:
Plasma TC = experiment: in vivo screen designated APCC (high fat, high cholesterol diet, plasma cholesterol); parameters: species or system male Sprague-Dawley rats; settings: Rattus norvegicus, dose 10 mg/kg; rats, PCC diet with 0.5% cholic acid overnight, vehicle CMC/Tween
Excerpt: In one in vivo screen designated APCC, male Sprague-Dawley rats (200 to 225 g) were randomly divided into treatment groups and dosed at 4 PM with either vehicle (CMC/Tween) or suspensions of compounds in vehicle. The normal chow diet was then replaced with a high fat, high cholesterol diet (designated PCC) containing 0.5% cholic acid. The rats consumed this diet ad libitum during the night and were sacrificed at 8 AM to obtain blood samples for cholesterol analysis using standard procedures. Statistical differences between mean cholesterol values for the same vehicle were determined using analysis of variance followed by Fisher's least significant test.

[1] = molecular target: T1, acyl-CoA: cholesterol acyltransferase (ACAT) (Rattus norvegicus, UniProt Q7TQM4); experiment: In vitro inhibition of acylation of cholesterol by oleic acid (LAI), rat liver microsomes; assay type: biochemical; settings: radiolabeled oleic acid
T1 construct: tissue preparation containing rat liver microsomes; from tissue; host or cells: rat liver microsomes
T1 sequence (Q7TQM4 1-524): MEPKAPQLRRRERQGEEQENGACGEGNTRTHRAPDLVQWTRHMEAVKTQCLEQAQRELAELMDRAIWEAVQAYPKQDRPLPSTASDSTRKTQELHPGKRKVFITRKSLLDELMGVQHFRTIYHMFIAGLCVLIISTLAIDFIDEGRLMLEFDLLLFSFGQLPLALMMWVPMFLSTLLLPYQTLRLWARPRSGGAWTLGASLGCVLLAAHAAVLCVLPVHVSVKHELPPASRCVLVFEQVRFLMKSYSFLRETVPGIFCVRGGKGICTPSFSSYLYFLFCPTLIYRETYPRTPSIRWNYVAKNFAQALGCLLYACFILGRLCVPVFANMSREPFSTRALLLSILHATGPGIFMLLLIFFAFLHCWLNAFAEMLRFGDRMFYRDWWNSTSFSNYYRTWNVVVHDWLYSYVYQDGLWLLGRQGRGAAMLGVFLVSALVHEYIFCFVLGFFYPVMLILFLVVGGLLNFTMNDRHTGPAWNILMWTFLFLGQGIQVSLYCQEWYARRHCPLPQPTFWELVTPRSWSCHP
Method: The ability of representative compounds of the present invention to inhibit ACAT was measured using an in vitro test more fully described in Field F J, Salone R G, Biochemica et Biophysica 1982; 712:557-570. The test assesses the ability of a test compound to inhibit the acylation of cholesterol by oleic acid by measuring the amount of radiolabeled cholesterol oleate formed from radiolabeled oleic acid in a tissue preparation containing rat liver microsomes.

With `CC(C)c1cc(C(C)C)c(CC(=O)NS(=O)(=O)Oc2c(C(C)C)cc(C(N)=O)cc2C(C)C)c(C(C)C)c1` [Example 24, [(2,4,6-Triisopropyl-phenyl)-acetyl]-sulfamic acid 4-carbamoyl-2,6-diisopropyl-phenyl ester] the change in vivo at 10 mg/kg (Plasma TC) was -5% and the IC50 [1] was 43.8 µM.
Work on `CC(C)c1cc(C(C)C)c(CC(=O)NS(=O)(=O)Oc2c(C(C)C)cc(CO)cc2C(C)C)c(C(C)C)c1` [Example 25, [(2,4,6-Triisopropyl-phenyl)-acetyl]-sulfamic acid 4-hydroxymethyl-2,6-diisopropyl-phenyl ester] yielded a change in vivo at 10 mg/kg (Plasma TC) of -54% and an IC50 [1] of 38.5 µM.
Work on `CC(=O)Nc1cc(C(C)C)c(OS(=O)(=O)NC(=O)Cc2c(C(C)C)cc(C(C)C)cc2C(C)C)c(C(C)C)c1` [Example 26] yielded a change in vivo at 10 mg/kg (Plasma TC) of -44% and an IC50 [1] of 30 µM.
`CC(C)c1cc(C(C)C)c(CC(=O)NS(=O)(=O)Oc2c(C(C)C)cc(N(CCO)CCO)cc2C(C)C)c(C(C)C)c1` [Example 28, [(2,4,6-Triisopropyl-phenyl)-acetyl]-sulfamic acid 4-[bis-(2-hydroxy-ethyl)-amino]-2,6-diisopropyl-phenyl ester] gave a change in vivo at 10 mg/kg (Plasma TC) of -48% and an IC50 [1] of 43.8 µM.
In the case of `CC(C)c1cc(C(C)C)c(CC(=O)NS(=O)(=O)Oc2c(C(C)C)cc(NC(=O)Nc3c(C(C)C)cccc3C(C)C)cc2C(C)C)c(C(C)C)c1` [Example 29], the change in vivo at 10 mg/kg (Plasma TC) is reported as -3% and the IC50 [1] is reported as 33 µM.
For `CC(C)c1cc(C(C)C)c(CC(=O)NS(=O)(=O)Oc2c(C(C)C)cc(NC(=O)Nc3ccccc3)cc2C(C)C)c(C(C)C)c1` [Example 30], the change in vivo at 10 mg/kg (Plasma TC) was -30% and the IC50 [1] was 20.3 µM.
For `CC(C)c1cc(C(C)C)c(CC(=O)NS(=O)(=O)Oc2c(C(C)C)cc(NC(=S)Nc3ccccc3)cc2C(C)C)c(C(C)C)c1` [Example 31], the change in vivo at 10 mg/kg (Plasma TC) was -21% and the IC50 [1] was 37.4 µM.
`CC(C)c1cc(C(C)C)c(CC(=O)NS(=O)(=O)Oc2c(C(C)C)cc(NS(=O)(=O)c3cccs3)cc2C(C)C)c(C(C)C)c1` [Example 32, [(2,4,6-Triisopropyl-phenyl)-acetyl]-sulfamic acid 2,6-diisopropyl-4-(thiophene-2-sulfonyamino)-phenyl ester] gave a change in vivo at 10 mg/kg (Plasma TC) of -60% and an IC50 [1] of 31.1 µM.
For `CC(C)c1cc(C(C)C)c(CC(=O)NS(=O)(=O)Oc2c(C(C)C)cc(NS(=O)(=O)c3cccc4c(N(C)C)cccc34)cc2C(C)C)c(C(C)C)c1` [Example 33, [(2,4,6-Triisopropyl-phenyl)-acetyl]-sulfamic acid 4-(5 dimethylamino-naphthalene-1-sulfonylamino)-2,6-diisopropyl-phenyl ester], the change in vivo at 10 mg/kg (Plasma TC) was -61% and the IC50 [1] was 10.6 µM.
`CC(C)c1cc(C(C)C)c(CC(=O)NS(=O)(=O)Oc2c(C(C)C)cc(NS(C)(=O)=O)cc2C(C)C)c(C(C)C)c1` [Example 34, [(2,4,6-Triisopropyl-phenyl)-acetyl]-sulfamic acid 2,6-diisopropyl-4methanesulfonylamino-phenyl ester] gave a change in vivo at 10 mg/kg (Plasma TC) of -13% and an IC50 [1] of 45 µM.
For `CCOC(=O)CCCCCc1cc(C(C)C)c(OS(=O)(=O)NC(=O)Cc2c(C(C)C)cc(C(C)C)cc2C(C)C)c(C(C)C)c1` [Example 36, 6-(3,5-Diisopropyl-4-{[(2,4,6-triisopropyl-phenyl)-acetyl]sulfamoyloxy}-phenyl)-hexanoic acid ethyl ester], the change in vivo at 10 mg/kg (Plasma TC) was -17% and the IC50 [1] was 19 µM.
For `CC(C)c1cc(C(C)C)c(CC(=O)NS(=O)(=O)Oc2c(C(C)C)cc(CCCCCC(=O)O)cc2C(C)C)c(C(C)C)c1` [Example 37], the change in vivo at 10 mg/kg (Plasma TC) was -47% and the IC50 [1] was > 50 µM.

Reference: US6093744A, “N-acyl sulfamic acid esters useful as hypocholesterolemic agents” (Warner-Lambert Company, priority 1998, dated 2000)
